Test results from ChEMBL document CHEMBL3137667, “[Drug-induced liver injury; fourteenth updated edition of the bibliographic database of liver injuries and related drugs]” (Gastroenterol Clin Biol, 2004).

Experiments:
[1] = Highest frequency of moderate liver toxicity observed during clinical trials, expressed as a percentage. [column '% BIOL' in source]; conditions: human
[2] = Highest frequency of acute liver toxicity observed during clinical trials, expressed as a percentage. [column '% AIGUE' in source]; conditions: human
[3] = Comments (NB not yet translated). [column 'COMMENTAIRES' in source]; conditions: human
[4] = Times to onset, minimal and maximal, observed in the indexed observations. [column 'DELAI' in source]; conditions: human
[5] = human, serum
[6] = human, serum; remark: listed apart in the source
[7] = human
[8] = human; remark: listed apart in the source
[9] = human; remark: listed apart in the source
[10] = human, serum, 4383 h
[11] = human; remark: listed apart in the source
[12] = human; remark: listed apart in the source
[13] = human; remark: listed apart in the source
[14] = human; remark: listed apart in the source
[15] = human; remark: listed apart in the source
[16] = human; remark: listed apart in the source
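Wherever Hepatotoxicity (association with vascular disease) is given: count of indexed literature references reporting vascular liver injury in humans, e.g. peliosis hepatitis, hepatic veno-occlusive disease or Budd-Chiari syndrome.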
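Wherever Hepatotoxicity (benign tumour) is given: value is a count of indexed literature references citing a benign tumour confirmed by histopathology.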
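Wherever Hepatotoxicity (choleostasis) is given: human cholestatic liver injury, shown by histopathology or by peak ALT or AST elevation over alkaline phosphatase ratio below 2, value counts indexed literature reports.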
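Wherever Hepatotoxicity (chronic liver disease) is given: chronic liver injury confirmed by histopathology or persistently raised serum aminotransferase activity beyond 6 months, value given as the count of indexed literature references.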
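Wherever Hepatotoxicity (cirrhosis) is given: value is a count of indexed literature references reporting cirrhosis confirmed by histopathology.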
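Wherever Hepatotoxicity (cytolytic) is given: human cytolytic liver injury, shown by histopathology or by a ratio above 5 of peak ALT or AST elevation to alkaline phosphatase elevation, value counts indexed references.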
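Wherever Hepatotoxicity (granulomatous hepatitis) is given: value is a count of indexed literature references reporting granulomatous liver disease confirmed by histopathology.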
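Wherever Hepatotoxicity (malignant tumour) is given: malignant tumour confirmed by histopathology, value gives the count of indexed literature references reporting it.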
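Wherever Hepatotoxicity (severe hepatitis) is given: human clinical data: severe hepatitis, meaning potentially life-threatening liver failure or clinically observed cases, the value counts how many indexed literature references report it.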
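Wherever Hepatotoxicity (steatosis) is given: steatosis confirmed by histopathology, value is the count of indexed references.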

| SMILES | Hepatotoxicity (moderate) [1] [%] | Hepatotoxicity (acute) [2] [%] | Hepatotoxicity (comment) [3] | Hepatotoxicity (time to onset) [4] | Hepatotoxicity (moderate) [5] | Hepatotoxicity (acute) [6] | Hepatotoxicity (cytolytic) [7] | Hepatotoxicity (choleostasis) [8] | Hepatotoxicity (severe hepatitis) [9] | Hepatotoxicity (chronic liver disease) [10] | Hepatotoxicity (cirrhosis) [11] | Hepatotoxicity (granulomatous hepatitis) [12] | Hepatotoxicity (association with vascular disease) [13] | Hepatotoxicity (steatosis) [14] | Hepatotoxicity (malignant tumour) [15] | Hepatotoxicity (benign tumour) [16] |
| --- | --- | --- | --- | --- | --- | --- | --- | --- | --- | --- | --- | --- | --- | --- | --- | --- |
| C[C@]12CC[C@H]3[C@@H](CCC4=CC(=O)CC[C@@H]43)[C@@H]1CC[C@@H]2O [NANDROLONE] | 0 | 0 | CHOLESTASE_PROLONGEE | 4 months - 12 years | 0 | 7 | 3 | 1 | 0 | 0 | 0 | 0 | 0 | 1 | 0 | 2 |
| O=C(CCNNC(=O)c1ccncc1)NCc1ccccc1 [NIALAMIDE] | 0 | 0 | RC/PHENIPRAZINE | 3 weeks | 0 | 2 | 2 | 1 | 0 | 0 | 0 | 0 | 0 | 1 | 0 | 0 |
| CCOC(=O)C1=C(C)NC(C)=C(C(=O)OC)C1c1cccc([N+](=O)[O-])c1 (stereo not given) [NITRENDIPINE] | 18.2 | 0 | AC_ANTI-N | 3 weeks | 2 | 1 | 0 | 0 | 0 | 0 | 0 | 0 | 0 | 0 | 0 | 0 |
| CC1COc2c(N3CCN(C)CC3)c(F)cc3c(=O)c(C(=O)O)cn1c23 (stereo not given) [OFLOXACIN] | 42.2 | 18.2 | I/PYRAZINAMIDE | 4 days - 26 weeks | 61 | 11 | 6 | 5 | 2 | 0 | 0 | 1 | 0 | 0 | 0 | 0 |
| O=C(O)c1cc(/N=N/c2ccc(O)c(C(=O)O)c2)ccc1O [OLSALAZINE] | 15 | 0 | RC/SULFASALAZINE | 3 weeks | 1 | 1 | 1 | 1 | 0 | 0 | 0 | 0 | 0 | 0 | 0 | 0 |
